{"source": "patent US20240300893A1", "about": "“SMALL MOLECULE COMPOUNDS TARGETING SRSF6 PROTEIN AND THEIR PREPARATION METHODS AND APPLICATIONS” (CHINA PHARMACEUTICAL UNIVERSITY, priority 2021, published 2024)", "key": {"[1]": {"system": "SW620 cells", "assay": "Inhibitory effect on SW620 cells (cell survival rate at 48 h)", "format": "cell-based", "conditions": "read-out: IC50, inhibitory effects on SW620 cells", "method": "(§1) Compound I was prepared with the same concentration gradient for primary screening, and compounds with lower IC50 than indacaterol were screened for secondary screening with concentration gradients of 1, 2, 4, and 8 μM.\n(§2) Both rounds of screening were performed on the colorectal cancer cell line SW620 with an initial cell number of 5000 cells per well, and the cell survival rate at 48 h was determined directly to determine the IC50 of the compound.\n(§3) Cell viability=[(reading of experimental group−reading of blank group)/(reading of control group−reading of blank group)]×100%."}, "[2]": {"system": "RKO cells", "assay": "Inhibitory effect on RKO cells (cell survival rate at 48 h)", "format": "cell-based, Human", "conditions": "procedures as for SW620, 48 h, read-out: IC50, inhibitory effects on RKO cells", "method": "as §1, §2, §3"}, "[3]": {"system": "HT29 cells", "assay": "Inhibitory effect on HT29 cells (cell survival rate at 48 h)", "format": "cell-based, Human", "conditions": "HT29, procedures as for SW620, 48 h, read-out: IC50, inhibitory effects on HT29 cells", "method": "as §1, §2, §3"}, "[4]": {"molecular_target": "T1, SRSF6 protein (Homo sapiens, UniProt Q13247)", "T1 sequence (Q13247 1-183)": "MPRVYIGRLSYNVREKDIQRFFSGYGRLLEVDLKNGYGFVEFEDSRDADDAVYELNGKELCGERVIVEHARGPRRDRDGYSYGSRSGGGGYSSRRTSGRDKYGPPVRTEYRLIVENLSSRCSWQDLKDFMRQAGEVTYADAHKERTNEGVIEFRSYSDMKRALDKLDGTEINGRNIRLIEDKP", "assay": "SRSF6 protein thermal shift assay", "format": "binding", "conditions": "for migration of SRSF6 protein compared with DMSO: in words", "text": "SRSF proteins play an important role in the regulation of gene expression, including constitutive splicing, alternative splicing, mRNA nuclear export and translation. SRSF proteins can be divided into two groups according to the number of RRM domains. Among them, SRSF6 has RRM1 and RRM2 domains. The RRM1 domain contains conserved sequences of RNP-1 and RNP-2, which can bind to related mRNAs. However, the RRM2 domain contains the evolutionarily conserved SWQDLKD heptapeptide sequence. RRM1 and RRM2 domains play irreplaceable roles in the specific recognition of alternative splice sites. Overexpression of SRSF6 induced colorectal carcinogenesis by binding to cell adhesion factor ZO-1, while indacaterol was validated to inhibit tumor development. Therefore, RRM1 and RRM2 domains of SRSF6 were extracted and the binding ability of compound I1 to SRSF6 was investigated by protein thermal shift assay using LYW1 as a reference.\nWe used DMSO as the blank group, and 56.5 μM SRSF6 protein was added to the PCR tube with LYW1 and I1 at a concentration of 1:10, respectively. After TS dye was added in the dark, the thermal migration assay was performed."}, "[5]": {"conditions": "Homo sapiens, SW-620, 48 h, SW620, 5000 cells per well"}}, "note": "Read-outs that look alike come from different tables or passages of the source.", "data": [{"molecule": "CCc1cc2c(cc1CC)CC(NC[C@@H](O)c1ccc(OCc3ccc(C)cc3)c3[nH]c(=O)ccc13)C2", "note": "[Compound I4, (S)-5-(2-((5,6-diethyl-2,3-dihydro-1H-inden-2-yl)amino)-1-hydroxyethyl)-8-((4-methylbenzyl)oxy)quinolin-2(1H)-one]", "values": [{"measurement": "IC50", "setting": "[1]; [5]", "result": 2.9, "unit": "µM"}]}, {"molecule": "CCc1cc2c(cc1CC)CC(NC[C@@H](O)c1ccc(OCc3cccc(F)c3)c3[nH]c(=O)ccc13)C2", "note": "[Compound I6, (S)-5-(2-((5,6-diethyl-2,3-dihydro-1H-inden-2-yl)amino)-1-hydroxyethyl)-8-((3-fluorobenzyl)oxy)quinolin-2(1H)-one]", "values": [{"measurement": "IC50", "setting": "[1]; [5]", "result": 3.06, "unit": "µM"}]}, {"molecule": "CCc1cc2c(cc1CC)CC(NC[C@H](O)c1ccc(OCc3cccc(F)c3)c3[nH]c(=O)ccc13)C2", "note": "[Compound I7, (R)-5-(2-((5,6-diethyl-2,3-dihydro-1H-inden-2-yl)amino)-1-hydroxyethyl)-8-((3-fluorobenzyl)oxy)quinolin-2(1H)-one]", "values": [{"measurement": "IC50", "setting": "[1]; [5]", "result": 2.73, "unit": "µM"}, {"measurement": "IC50", "setting": "[2]; Homo sapiens, 48 h", "result": 3.11, "unit": "µM"}, {"measurement": "IC50", "setting": "[3]; Homo sapiens, HT-29, 48 h", "result": 2.66, "unit": "µM"}]}, {"molecule": "CCc1cc2c(cc1CC)CC(NC[C@@H](O)c1ccc(OCc3cc(F)cc(F)c3)c3[nH]c(=O)ccc13)C2", "note": "[Compound I9, (S)-5-(2-((5,6-diethyl-2,3-dihydro-1H-inden-2-yl)amino)-1-hydroxyethyl)-8-((3,5-difluorobenzyl)oxy)quinolin-2(1H)-one]", "values": [{"measurement": "IC50", "setting": "[1]; [5]", "result": 3.15, "unit": "µM"}]}, {"molecule": "CCc1cc2c(cc1CC)CC(NC[C@@H](O)c1ccc(OCc3ccc(F)c(F)c3)c3[nH]c(=O)ccc13)C2", "note": "[Compound I10, (S)-5-(2-((5,6-diethyl-2,3-dihydro-1H-inden-2-yl)amino)-1-hydroxyethyl)-8-((3,4-difluorobenzyl)oxy)quinolin-2(1H)-one]", "values": [{"measurement": "IC50", "setting": "[1]; [5]", "result": 4.18, "unit": "µM"}]}, {"molecule": "CCc1cc2c(cc1CC)CC(NC[C@H](O)c1ccc(O)c3[nH]c(=O)ccc13)C2", "note": "[Indacaterol, reference compound]", "values": [{"measurement": "IC50", "setting": "[1]; [5]", "result": "20 to 25", "unit": "µM"}, {"measurement": "IC50", "setting": "[1]; SW620, 5000 cells per well", "result": 23.1, "unit": "µM"}, {"measurement": "IC50", "setting": "[2]; Homo sapiens, 48 h", "result": "10 to 15", "unit": "µM"}, {"measurement": "IC50", "setting": "[2]", "result": 12.8, "unit": "µM"}, {"measurement": "IC50", "setting": "[3]", "result": 12.7, "unit": "µM"}, {"measurement": "IC50", "setting": "[3]; Homo sapiens, HT-29, 48 h", "result": "10 to 15", "unit": "µM"}]}, {"molecule": "CCc1cc2c(cc1CC)CC(NC[C@@H](O)c1ccc(OCc3ccc(F)cc3)c3[nH]c(=O)ccc13)C2", "note": "[Compound I1, (S)-5-(2-((5,6-diethyl-2,3-dihydro-1H-inden-2-yl)amino)-1-hydroxyethyl)-8-((4-fluorobenzyl)oxy)quinolin-2(1H)-one]", "values": [{"measurement": "IC50", "setting": "[1]; Homo sapiens, SW-620, SW620, 5000 cells per well", "result": 3.12, "unit": "µM"}, {"measurement": "IC50", "setting": "[2]; Homo sapiens", "result": 1.42, "unit": "µM"}, {"measurement": "IC50", "setting": "[3]; Homo sapiens, HT-29", "result": 1.42, "unit": "µM"}, {"measurement": "binding effect with SRSF6 protein", "setting": "[4]; compared with LYW1, in words", "result": "better binding effect"}, {"measurement": "migration of SRSF6 protein compared with DMSO", "setting": "[4]", "result": "negative migration"}]}, {"molecule": "CCc1cc2c(cc1CC)CC(NC[C@H](O)c1ccc(OCc3ccc(F)cc3)c3[nH]c(=O)ccc13)C2", "note": "[Compound I2, (R)-5-(2-((5,6-diethyl-2,3-dihydro-1H-inden-2-yl)amino)-1-hydroxyethyl)-8-((4-fluorobenzyl)oxy)quinolin-2(1H)-one]", "values": [{"measurement": "IC50", "setting": "[1]; [5]", "result": 8.62, "unit": "µM"}, {"measurement": "IC50", "setting": "[2]; Homo sapiens, 48 h", "result": 5.56, "unit": "µM"}, {"measurement": "IC50", "setting": "[3]; Homo sapiens, HT-29, 48 h", "result": 4.69, "unit": "µM"}]}, {"molecule": "CCc1cc2c(cc1CC)CC(NC[C@H](O)c1ccc(OCc3ccc(C)cc3)c3[nH]c(=O)ccc13)C2", "note": "[Compound I5, (R)-5-(2-((5,6-diethyl-2,3-dihydro-1H-inden-2-yl)amino)-1-hydroxyethyl)-8-((4-methylbenzyl)oxy)quinolin-2(1H)-one]", "values": [{"measurement": "IC50", "setting": "[1]; [5]", "result": 2.98, "unit": "µM"}]}, {"molecule": "CCc1cc2c(cc1CC)CC(NC[C@@H](O)c1ccc(OCc3c(F)c(F)c(F)c(F)c3F)c3[nH]c(=O)ccc13)C2", "note": "[Compound I11, (S)-5-(2-((5,6-diethyl-2,3-dihydro-1H-inden-2-yl)amino)-1-hydroxyethyl)-8-((perfluorophenyl)methoxy)quinolin-2(1H)-one]", "values": [{"measurement": "IC50", "setting": "[1]; [5]", "result": 6.09, "unit": "µM"}]}, {"molecule": "CCc1cc2c(cc1CC)CC(NC[C@H](O)c1ccc(OCc3ccccc3)c3[nH]c(=O)ccc13)C2", "note": "[LYW1, reference compound]", "values": [{"measurement": "IC50", "setting": "[1]; [5]", "result": 3.54, "unit": "µM"}, {"measurement": "IC50", "setting": "[2]; Homo sapiens, 48 h", "result": 2.03, "unit": "µM"}, {"measurement": "IC50", "setting": "[3]; Homo sapiens, HT-29, 48 h", "result": 2.43, "unit": "µM"}, {"measurement": "migration of SRSF6 protein compared with DMSO", "setting": "[4]", "result": "negative migration"}]}]}
